Experiments:
Assay type in all cases: in vivo
[1] = test system: transgenic soybean plants expressing CYP34; experiment: Icafolin herbicide injury rating, greenhouse spray, CYP34 soybean; conditions: Table 10
From the text: The codon-optimized gene was placed into plant transformation cassette with the CYP34 coding sequence operably linked to a constitutive expression element comprising the promoter, leader, and intron of Arabidopsis thaliana Ubiquitin 3 (SEQ ID NO:14) and a Medicago truncatula photosystem II terminator (SEQ ID NO:15). A plant transformation vector was created, comprising the CYP34 gene cassette and an aadA selectable marker expression cassette, which confers resistance to the antibiotics spectinomycin and streptomycin. Soybean cultivar AG3555 seed-derived embryo explants were transformed with the vector described above by Agrobacterium-mediated transformation using known methods in the art, and positive-transformed plantlets were selected based on growth in the presence of spectinomycin. Plantlets comprising single copy events were grown in the greenhouse to produce R1 seeds. R1 plants were subsequently selected for the homozygous CYP positive plants, either by molecular analysis of young leaf tissue or by seed chipping prior to planting. These selected plants were then screened for tolerance to the icafolin herbicide.
Herbicide tolerance screening was performed by selecting R1 plants at roughly the V2-V3 developmental stage and applying the icafolin herbicide in a track sprayer under standard greenhouse conditions. Two independent transgenic events per transgene were selected for screening. The herbicide was formulated with 1% v/v methylated seed oil (MSO) and 2.5% v/v ammonium sulfate (AMS) and sprayed with a XR nozzle at 15 gallons per […] (GPA) to mimic field conditions. The icafolin formulation was sprayed at two rates: 5 g active ingredient (ai)/hectare (ha) and 25 g ai/ha. The treated soybean plants were returned to the greenhouse following spray application and allowed to grow under standard conditions. The plants were rated for herbicide injury at approximately 13 and 21 days after treatment (DAT). Untreated transgenic plants and control (wild-type) plants were used for phenotypic comparison. The herbicide injury rating accounts for plant malformation, stunting, chlorosis, necrosis, and plant death relative to the untreated control plants. An injury rating of approximately 90% or above indicates nearly complete plant death. An injury rating of less than 30% indicates partial tolerance and an injury rating of less than 20% indicates good tolerance. Injury ratings were collected and analyzed, and photographs of representative plants were taken.

[2] = test system: transgenic soybean plants expressing CYP12_var; experiment: Icafolin herbicide injury rating, greenhouse spray, CYP12_var soybean; conditions: for Percent Injury 15 DAT / Percent injury 21 DAT: Experiment 1
From the text: The codon-optimized polynucleotide sequences were placed into plant transformation cassettes with each CYP coding sequence operably-linked to a constitutive expression element comprising the promoter, leader, and intron sequence of Arabidopsis thaliana Ubiquitin 3 (SEQ ID NO:14) and a Medicago truncatula photosystem II terminator (SEQ ID NO:15). Four plant transformation vectors were created, each comprising one of the CYP gene expression cassettes and an aadA selectable marker expression cassette, conferring resistance to the antibiotics spectinomycin and streptomycin. Soybean cultivar AG3555 seed-derived embryo explants were transformed with the vectors by Agrobacterium-mediated transformation using known methods in the art, and transformed plantlets were selected based on growth in the presence of spectinomycin. Plantlets comprising single copy events were grown in the greenhouse to produce R1 seeds. R1 plants were subsequently selected for homozygous CYP-positive plants, either by molecular analysis of young leaf tissue or by seed chipping prior to planting. These selected plants were then screened for tolerance to icafolin herbicide.
Herbicide tolerance screens were performed by selecting R1 plants at roughly the V2-V3 developmental stage and applying icafolin herbicide with a track sprayer under standard greenhouse conditions. Two independent transgenic events per transgene were screened. The herbicide was formulated with 1% v/v methylated seed oil (MSO) and 2.5% v/v ammonium sulfate (AMS) and sprayed with a XR nozzle at 15 gallons per […] (GPA) to mimic field conditions. The icafolin used in this Example and in the experiments described in Examples 2-4 was a mixture of the methyl ester forms of the 2R, 4R and 2S, 4S isomers. The icafolin formulation was sprayed at two rates: 5 g active ingredient (ai)/hectare (ha) and 25 g ai/ha. The herbicide treated soybean plants were returned to the greenhouse following spray application and allowed to grow under standard conditions. Plants were rated for herbicide injury at approximately 14 and 21 days after treatment (DAT). Untreated transgenic plants and control (wild-type) plants were used for phenotypic comparison. The herbicide injury rating accounts for plant malformation, stunting, chlorosis, necrosis, and plant death relative to the untreated control plants. An injury rating of approximately 90% or above indicates nearly complete plant death. An injury rating of less than 30% indicates partial tolerance, and an injury rating of less than 20% indicates good tolerance. Injury ratings were collected and analyzed, and photographs of representative plants were taken.

[3] = test system: Soy transgenic plants expressing CYP15; experiment: Field trial icafolin injury rating, CYP15 soybean; conditions: for Percent Plant Injury (21 DAT): averaged across repetitions, field locations and events
Description: Soy transgenic plants expressing CYP14 or CYP15 were assayed in small scale field trails across nine sites in the United States for tolerance to icafolin spray applications. The plants were grown in field plots and sprayed during the early vegetative stages when plants were roughly at the V3 stage. The icafolin formulation was sprayed at either a 5 g ai/ha or 25 g ai/ha application rate with 2 treatment replications per location. The plants were rated for herbicide injury at 7, 14, 21, and 28 days after treatment (DAT). A total of 12 events for CYP14 and 11 events for CYP15 were tested. An event transformed with a non-herbicide tolerance construct served as a negative control to provide a comparison for injury.

[4] = CYP34 Event 326, 5 g ai/ha icafolin
[5] = CYP34 Event 326, 25 g ai/ha icafolin
[6] = CYP34 Event 356, 5 g ai/ha icafolin
[7] = CYP34 Event 356, 25 g ai/ha icafolin
[8] = CYP12_var Event 909, 5 g ai/ha icafolin
[9] = CYP12_var Event 909, 25 g ai/ha icafolin
[10] = CYP12_var Event 932, 5 g ai/ha icafolin
[11] = CYP12_var Event 932, 25 g ai/ha icafolin

For `C=C[C@]1(C(=O)N[C@H]2CO[C@@H](C(=O)OC)C2)CC(c2cc(F)cc(F)c2)=NO1` (relative stereo) [icafolin, methyl(2R*,4R*)-4-[[(5S)-3-(3,5-difluorophenyl)-5-vinyl-4H-isoxazole-5-carbonyl]amino]tetrahydrofuran-2-carboxylate], which “Percent Injury 13 DAT” value [1, 4] is on record?
Its value is 12.5%.

What about the “Percent injury 21 DAT” value [1, 4] of the same compound?
The value was 9.2%.

And the “Percent Injury 13 DAT” value [1, 5]?
The value was 48.3%.

What about the “Percent injury 21 DAT” value [1, 5] of the same compound?
The value was 36.7%.

What about the “Percent Injury 13 DAT” value [1, 6] of the same compound?
Its value is 13.3%.

What about the “Percent injury 21 DAT” value [1, 6] of the same compound?
Its value is 12.5%.

And the “Percent Injury 13 DAT” value [1, 7]?
Its value is 35.8%.

And the “Percent injury 21 DAT” value [1, 7]?
The value was 30.8%.

What about the “Percent Injury 15 DAT” value [2, 8] of the same compound?
The value was 39%.

And the “Percent injury 21 DAT” value [2, 8]?
The value was 50%.

What about the “Percent Injury 15 DAT” value [2, 9] of the same compound?
The value was 57%.

And the “Percent injury 21 DAT” value [2, 9]?
Its value is 77%.

What about the “Percent Injury 15 DAT” value [2, 10] of the same compound?
The value was 42%.

What about the “Percent injury 21 DAT” value [2, 10] of the same compound?
Its value is 47%.

And the “Percent Injury 15 DAT” value [2, 11]?
Its value is 69%.

And the “Percent injury 21 DAT” value [2, 11]?
Its value is 80%.

What about the Tolerance to icafolin ([2]; in vivo) of the same compound?
Its Tolerance to icafolin is “did not show any noticeable tolerance”.

And the “Percent Plant Injury (21 DAT)” value ([3]; 5 g ai/ha icafolin)?
Its value is 8.7%.

What about the “injury ratings” value ([3]; 5 g ai/ha, 21 DAT) of the same compound?
The value was “below 15%”.

What about the Tolerance to icafolin ([3]; 25 g ai/ha) of the same compound?
The Tolerance to icafolin was “Incomplete tolerance”.

And the “Percent Plant Injury (21 DAT)” value ([3]; 25 g ai/ha icafolin)?
Its value is 31.9%.
